Laboratory results: ChEMBL document CHEMBL1240418, “Carbonic anhydrase inhibitors. Regioselective synthesis of novel 1-substituted 1,4-dihydro-4-oxo-3-pyridinesulfonamides and their inhibition of the human cytosolic isozymes I and II and transmembrane cancer-associated isozymes IX and XII” (Eur J Med Chem, 2010)

What follows are compounds tested against Carbonic anhydrase 9 (Homo sapiens, UniProt Q16790).

SMILES	Ki
Cn1ccc(=O)c(S(N)(=O)=O)c1	7.1 nM
NC(=O)Cn1ccc(=O)c(S(N)(=O)=O)c1	64 nM
COC(=O)Nc1ccccc1C(=O)n1ccc(=O)c(S(N)(=O)=O)c1	96 nM
NS(=O)(=O)c1cn(-c2ccc([N+](=O)[O-])cc2[N+](=O)[O-])ccc1=O	5.8 nM
NS(=O)(=O)c1cn(-c2ccc([N+](=O)[O-])c3[n-][o+]nc23)ccc1=O	6.9 nM

The next lines start with the values.

Ki	SMILES
7.8 nM	NS(=O)(=O)c1cn(Cc2ccccc2)ccc1=O
11.8 nM	NS(=O)(=O)c1cn(CC(=O)c2ccc(Cl)cc2)ccc1=O
9.7 nM	NS(=O)(=O)c1cn(CC(=O)c2ccc(F)cc2)ccc1=O
8.6 nM	NS(=O)(=O)c1cn(CC(=O)c2ccc(Cl)c(Cl)c2)ccc1=O
11.9 nM	NS(=O)(=O)c1cn(CC(=O)c2cccc([N+](=O)[O-])c2)ccc1=O
118 nM	NS(=O)(=O)c1cn(CC(=O)c2ccc3ccccc3c2)ccc1=O
